Laboratory results taken from ChEMBL document CHEMBL3045458, “Design, synthesis and biological evaluation of novel arylidine-malononitrile derivatives as non-carboxylic inhibitors of protein tyrosine phosphatase 1B” (Med Chem Res, 2013).

Tests used:
[1] = target: T1, Tyrosine-protein phosphatase non-receptor type 1 (Homo sapiens) (UniProt P18031); assay: Inhibition of PTP1B (unknown origin) at 10 uM
T1 sequence (whole entry): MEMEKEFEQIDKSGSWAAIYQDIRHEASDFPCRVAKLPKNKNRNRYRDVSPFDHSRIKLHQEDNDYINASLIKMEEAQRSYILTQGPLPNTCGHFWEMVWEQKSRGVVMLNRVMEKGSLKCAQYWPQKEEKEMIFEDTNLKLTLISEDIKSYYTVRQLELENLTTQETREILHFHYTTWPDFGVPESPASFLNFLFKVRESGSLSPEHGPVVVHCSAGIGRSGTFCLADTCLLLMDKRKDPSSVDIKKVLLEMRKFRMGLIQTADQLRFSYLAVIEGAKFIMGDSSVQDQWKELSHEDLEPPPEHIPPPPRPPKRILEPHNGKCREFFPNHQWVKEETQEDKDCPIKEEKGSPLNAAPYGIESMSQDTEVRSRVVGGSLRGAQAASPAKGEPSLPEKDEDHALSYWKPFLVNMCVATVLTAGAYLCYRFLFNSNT

L6 (Rattus norvegicus) = assay: Glucose uptake in Rattus norvegicus (rat) L6 cells at 50 uM
Danio rerio [2] = organism: Danio rerio; assay: Toxicity in Danio rerio (zebrafish) embryo assessed as developmental delays at 10 uM after 24 to 72 hr by light microscopic analysis relative to control; assay type: organism-based; conditions: in vivo
Danio rerio [3] = organism: Danio rerio; assay: Toxicity in Danio rerio (zebrafish) embryo assessed as mortality at 10 uM after 24 to 72 hr by light microscopic analysis relative to control; assay type: organism-based; conditions: in vivo
Danio rerio [4] = assay: Toxicity in Danio rerio (zebrafish) embryo assessed as oedema at 10 uM after 24 to 72 hr by light microscopic analysis relative to control; assay type: organism-based; conditions: in vivo
Danio rerio [5] = organism: Danio rerio; assay: Toxicity in Danio rerio (zebrafish) embryo assessed as deformations at 10 uM after 24 to 72 hr by light microscopic analysis relative to control; assay type: organism-based; conditions: in vivo

Row | inhibition [1] | glucose uptake (L6 (Rattus norvegicus)) | Structure (SMILES) | Activity (Danio rerio [2]) | Activity (Danio rerio [3]) | Activity (Danio rerio [4]) | Activity (Danio rerio [5])
1 | 30.4% | 13.3% | N#CC(C#N)=Cc1ccc(OCCSc2nnc(-c3ccc(F)cc3)o2)cc1 |  |  |  | 
2 | 23.4% | 26.6% | N#CC(C#N)=Cc1ccc(OCCSc2nnc(-c3ccccc3Cl)o2)cc1 |  |  |  | 
3 | 34.3% | 24.2% | N#CC(C#N)=Cc1ccc(OCCSc2nnc(-c3ccc(Cl)cc3)o2)cc1 |  |  |  | 
4 | 41.4% | 11.8% | N#CC(C#N)=Cc1ccc(OCCSc2nnc(-c3cccc([N+](=O)[O-])c3)o2)cc1 |  |  |  | 
5 | 39% | 13.5% | COc1cccc(-c2nnc(SCCOc3ccc(C=C(C#N)C#N)cc3)o2)c1 |  |  |  | 
6 | 44.5% | 18.8% | Cc1ccc(-c2nnc(SCCOc3ccc(C=C(C#N)C#N)cc3)o2)cc1 |  |  |  | 

Row | Structure (SMILES) | inhibition [1] | glucose uptake (L6 (Rattus norvegicus)) | Activity (Danio rerio [2]) | Activity (Danio rerio [3]) | Activity (Danio rerio [4]) | Activity (Danio rerio [5])
7 | COc1ccccc1-c1nnc(SCCOc2ccc(C=C(C#N)C#N)cc2)o1 | 50% | 38.5% | Non-toxic | Non-toxic | Non-toxic | Non-toxic
8 | N#CC(C#N)=Cc1ccc(OCCSc2nnc(-c3ccccc3)o2)cc1 | 54.6% | 25.3% | Non-toxic | Non-toxic | Non-toxic | Non-toxic
